Our source for the RP-LC retention time values is the METLIN SMRT retention time set (Domingo-Almenara et al. 2019).

This data set in a line: gradient 5% acetonitrile 3 min, to 50% in 2 min, to 85% in 15 min, held 3 min, 100 µL/min. As to conditions: column: Zorbax Extend-C18 2.1 x 50 mm; eluents: water / acetonitrile, 0.1% formic acid. In outline: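 Data were gathered over 3 months by HPLC coupled to a quadrupole time-of-flight mass spectrometer, operated in positive and negative ionization mode. Mixtures of ~100 pure standards ran on a Zorbax Extend-C18 column (2.1 × 50 mm, 1.8 μm) at 100 μL/min, with water and acetonitrile each containing 0.1% formic acid and dead and dwell volumes of 40 μL and 900 μL. Retention time was read from adduct peaks picked by computer and checked manually.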
Regarding `CCc1ccc(-c2noc(Cn3c(=O)n(-c4ccccc4F)c(=O)c4sccc43)n2)cc1`, the RP-LC retention time is 1100 s.

`Cc1cccc(CN2C[C@@H]3C(=O)N(CCCN4CCCC4=O)C(=O)[C@@H]3C2)c1` had an RP-LC retention time of 589 s.

Compound `CCN(CC)c1ccc(-c2noc(CN3CCN(c4ncccn4)CC3)n2)cn1` had an RP-LC retention time of 655 s.

On to `COc1cccc(CCC(=O)Nc2cnn(-c3ncc(N4CCCCC4)cn3)c2)c1`, for which the RP-LC retention time worked out at 890 s.

In turn, `CCCS(=O)(=O)c1nc2ccc(NS(=O)(=O)c3ccc(F)cc3Cl)cc2s1` had an RP-LC retention time of 973 s.

In turn, `CS(=O)(=O)N1CCC(CNC(=O)C(=O)Nc2ccon2)CC1` yielded an RP-LC retention time of 609 s.

As for `Cc1nn(-c2ccccc2)c(C)c1CCC(=O)NCCN(C)C`, the RP-LC retention time worked out at 590 s.

In the case of `Cc1nc([C@@H]2CN(S(=O)(=O)C(C)C)C[C@H]2C(N)=O)n[nH]1`, the RP-LC retention time was 566 s.

The compound `CSc1ccc(-c2nc3cnccn3c2Nc2cccc(C(=O)NC(C)C)c2)cc1` gave an RP-LC retention time of 784 s.

In turn, `COc1ccc(NC(=O)Cn2c(=O)n(-c3ccccc3)c(=O)c3c2cc(C)n3C)cc1OC` displayed an RP-LC retention time of 791 s.

`Cc1nnc2cc(N3CCN(Cc4cn[nH]c4-c4cccs4)CC3)cnn12` displayed an RP-LC retention time of 543 s.

In turn, `CCOCCCNCc1ccc(-c2ccc(Br)cc2)o1` yielded an RP-LC retention time of 705 s.

With `Cc1cc(S(=O)(=O)N2CCC(n3cnnc3C(C)C)CC2)ccc1F`, the RP-LC retention time stood at 751 s.

The compound `COc1ccc(-c2nnc(-c3cc(S(=O)(=O)NCc4cccs4)ccc3Cl)o2)cc1` yielded an RP-LC retention time of 1040 s.

In turn, `COC(=O)c1ccc(NC(=O)N2CCC(n3cnc4cccnc43)CC2)cc1` showed an RP-LC retention time of 652 s.

The compound `Cc1ccc(C)c(Nc2c(-c3ccc(O)cc3)nc3ncccn23)c1` registered an RP-LC retention time of 664 s.

For `CC1=NS(=O)(=O)N(C)C=C1C(=O)OCc1nc(-c2ccc(Cl)cc2)no1`, the RP-LC retention time was 1010 s.

As to `CSc1cccc(NC(=O)c2cn3c(n2)CCCC3)c1`, the RP-LC retention time turned out to be 630 s.

`COc1ccc(OC)c(NC(=O)Cn2nc3c4cc(Cl)ccc4ncn3c2=O)c1` came in with an RP-LC retention time of 740 s.

In turn, `CCN1CCN(S(=O)(=O)c2cccc(-c3nc(-c4ccccc4)no3)c2)CC1` had an RP-LC retention time of 722 s.

Consider `Cc1ccc2nc3sc(C(=O)Nc4cccc(C(F)(F)F)c4)cc3c(=O)n2c1`, for which the RP-LC retention time amounted to 980 s.

Turning to `O=C(C1=NNc2ccc(Cl)cc2S1(=O)=O)N1CCOCC1`, the RP-LC retention time is 663 s.

For the compound `Cc1ccnc(N2CCCC(C(=O)Nc3cc(Cl)ccc3C)C2)n1` (centres undefined), the RP-LC retention time is 846 s.

The compound `O=C(CCn1cccn1)N1CCCn2ccnc2C1C1CCCC1` (centres undefined) gave an RP-LC retention time of 582 s.

Compound `Cn1ncc(N2CCCC(C(=O)N3CCc4ccccc4C3)C2)cc1=O` (centres undefined) yielded an RP-LC retention time of 732 s.

In the case of `COc1ccc(-c2nc(-c3ccc4c(c3)oc(=O)n4C)no2)c(C)c1`, the RP-LC retention time is 1100 s.

With `CCN1CCN(CCNC(=O)C2CCCN(c3nnc(C)c4c(C)n(-c5ccccc5)nc34)C2)CC1` (centres undefined), the RP-LC retention time turned out to be 570 s.

Turning to `CCn1c(=O)c(C)nc2cc(-c3noc(/C=C/c4ccc(C)cc4)n3)ccc21`, the RP-LC retention time came out at 1170 s.

Regarding `NS(=O)(=O)c1ccc(CCNC(=O)Cc2cc(-c3cc4ccccc4o3)on2)cc1`, the RP-LC retention time turned out to be 736 s.

In turn, `Cc1cccc(N2CCN(C(=O)c3[nH]c(C)c(S(=O)(=O)N4CCOCC4)c3C)CC2C)c1` (centres undefined) yielded an RP-LC retention time of 752 s.

Take `Cc1cccc(N2CCN([C@H]3CS(=O)(=O)C[C@@H]3S(=O)(=O)c3ccccc3)CC2)c1`: the RP-LC retention time was determined as 876 s.

`COc1cccc(OCC2c3ccsc3CCN2C(=O)CN(C(C)=O)C(C)C)c1` (centres undefined) gave an RP-LC retention time of 808 s.

`Cc1ccc(NC(=O)N2CCN(c3cnn4c(C5CC5)nnc4c3)CC2)cc1` gave an RP-LC retention time of 653 s.

Compound `FC1(c2nc(-c3ccccc3)no2)CCN(C2CCOCC2)CC1` registered an RP-LC retention time of 636 s.

Compound `CC(C)CC(NC(=O)Cc1ccccc1F)C(=O)Nc1nc2ccccc2[nH]1` (centres undefined) displayed an RP-LC retention time of 740 s.

In the case of `O=C(NCCN1CCCC1)c1c2c(nc3ccccc13)C(=O)N(C1CCCCC1)C2`, the RP-LC retention time was found to be 598 s.

In turn, `CCc1ccc(CNC(=O)c2cn3c(n2)COCC3)cc1` yielded an RP-LC retention time of 710 s.

`NC(=O)c1cc(-c2ccccc2)sc1NC(=O)c1ccc([N+](=O)[O-])o1` yielded an RP-LC retention time of 883 s.

On to `c1ccc(Nc2c(-c3ccc(N4CCOCC4)cc3)nc3ccccn23)cc1`, for which the RP-LC retention time is 670 s.

In turn, `CCc1nn(CC(=O)N2CCN(c3ncccn3)CC2)c(=O)c2cc3sccc3n12` showed an RP-LC retention time of 730 s.

Consider `O=C(CCc1nc(-c2ccc(N3CCCCC3)cc2)no1)N1CCC2(CC1)OCCO2`, for which the RP-LC retention time is 798 s.

Take `CCOCCCNC(=O)Cc1c(C)n(C)c2nc(-c3ccccc3)nn2c1=O`: the RP-LC retention time worked out at 649 s.

Compound `O=C(Cc1csc(SCC(=O)c2cccs2)n1)Nc1ccc(F)c(Cl)c1` came in with an RP-LC retention time of 923 s.

In turn, `CCOc1ccc(Nc2c3ccccc3nc3ccccc23)cc1` came in with an RP-LC retention time of 795 s.

`CC1=NS(=O)(=O)N(C)C=C1C(=O)OCc1ccccc1C` had an RP-LC retention time of 616 s.

For the compound `COc1ccccc1NC(=O)Cn1nc2c(Oc3cccc(F)c3)nccn2c1=O`, the RP-LC retention time amounted to 867 s.

For the compound `Cc1ccc(C)c(-c2cc3c(=O)n(Cc4nc(-c5cccc(Br)c5)no4)ncn3n2)c1`, the RP-LC retention time is 1340 s.

The compound `CCOC(=O)CC(=O)Nc1cc2c(cc1N1CCOCC1)n(C)c(=O)n2C` returned an RP-LC retention time of 660 s.

Compound `Cc1nn(CC(=O)NCCCN2CCCC2)c(=O)c2cc(-c3ccccc3)nn12` displayed an RP-LC retention time of 587 s.

`Cc1ccc(CN2CCN(C3CCN(S(=O)(=O)c4ccccc4Cl)CC3)C(=O)C2=O)cc1` gave an RP-LC retention time of 847 s.

Turning to `O=C(C1CCC1)N1[C@H]2CC[C@@H]1c1cnc(-c3ccc(F)cc3)nc1C2`, the RP-LC retention time turned out to be 955 s.

`CN(C)CCNc1nnc(-c2nc(-c3ccc(F)cc3)no2)c2ccccc12` registered an RP-LC retention time of 687 s.

`COc1ccc2c(c1)c(CN1CCC(N3C[C@H](OC)[C@@H]3c3cccnc3)CC1)cn2C(C)C` came in with an RP-LC retention time of 596 s.

In the case of `COc1ccc(NC(=O)N2CCC3(CC2)N=C(c2ccccc2)C(=O)N3)c(OC)c1`, the RP-LC retention time was determined as 764 s.

As to `O=c1ccc(-c2nc(-c3ccc4c(c3)OCO4)no2)cn1Cc1cc(=O)n2ccccc2n1`, the RP-LC retention time stood at 740 s.

`CC(=O)NCC(=O)N1[C@@H]2CC[C@H]1c1ccc(Nc3ncc(C(F)(F)F)c(NC4CCC4)n3)cc12` had an RP-LC retention time of 716 s.

The compound `COc1ccc(N2CCN(C(=O)C3CCc4nc(N5CCCC5)ncc4C3)CC2)cc1` (centres undefined) showed an RP-LC retention time of 626 s.

On to `COc1cccc(C2CC(c3ccc(Br)cc3)=NC3(CCN(C)CC3)N2)c1O` (centres undefined), for which the RP-LC retention time was determined as 620 s.

Compound `Cc1noc(C)c1CNC(=O)c1nccc2ccccc12` displayed an RP-LC retention time of 753 s.

Compound `Cc1nn2c(CNC(=O)c3ccc(F)c(F)c3)c(C)nc2s1` registered an RP-LC retention time of 634 s.

Regarding `O=C(Nc1ccc2c(c1)OCCO2)N1CCC2(CC1)CC(OCc1ccccc1)CCO2` (centres undefined), the RP-LC retention time is 914 s.

In turn, `c1ccc(-c2cn(CCC3CCCCN3)nn2)cc1` (centres undefined) gave an RP-LC retention time of 509 s.

For the compound `O=C(NC1CC1)c1ccc(OCC2CCN(C(=O)c3cc(F)ccc3Cl)CC2)cc1`, the RP-LC retention time turned out to be 839 s.

For the compound `CC(C)N1CCn2c(nc3cc(C(=O)NCc4ccccc4Cl)ccc32)C1=O`, the RP-LC retention time came out at 719 s.

Compound `CCOc1ccccc1N1C(=O)CC(N2CCC(C(N)=O)CC2)C1=O` (centres undefined) yielded an RP-LC retention time of 589 s.

`O=S(=O)(Cc1ccccc1)N1CCCC(Cc2noc(-c3ccccc3)n2)C1` (centres undefined) returned an RP-LC retention time of 1050 s.

The compound `CCCc1nnc(NC(=O)C2CCN(C(=O)c3cccc(F)c3)CC2)s1` gave an RP-LC retention time of 727 s.

The compound `CN1c2ccccc2C(=O)NC12CCN(C(=O)NCc1cccc(F)c1)CC2` gave an RP-LC retention time of 722 s.

`COCc1nc(CCNS(=O)(=O)c2ccc(OC)cc2)no1` came in with an RP-LC retention time of 731 s.

In turn, `CN(C(=O)c1ccc(-c2cnc(N3CCCC3)nc2)cc1)C1CCCCC1` displayed an RP-LC retention time of 969 s.

`O=C(CSC1=N/C(=C/c2ccc3c(c2)OCO3)C(=O)N1c1ccccc1)c1ccccc1` returned an RP-LC retention time of 1100 s.

In turn, `CC(C)Cn1ccc2c(cc(C(=O)NCc3cc(F)cc(F)c3)n2C)c1=O` yielded an RP-LC retention time of 850 s.

As for `CCn1c(=O)sc2cc(S(=O)(=O)N3CCC(C(=O)NCc4ccc(F)cc4)CC3)ccc21`, the RP-LC retention time is 979 s.

In turn, `CCCNC(=O)C1CCCN(c2ccc(SCC(=O)NCc3ccc(F)cc3)nn2)C1` (centres undefined) gave an RP-LC retention time of 652 s.

The compound `CCCc1noc(-c2cccnc2N2CCCN(Cc3ccccc3Cl)CC2)n1` registered an RP-LC retention time of 737 s.

As for `Cc1ccc2c(c1)C1CC(C)(O2)N(c2ccc(C(=O)O)cc2)C(=O)N1` (centres undefined), the RP-LC retention time turned out to be 709 s.

Take `Cc1cc(N2CCN(C)CC2)nc2ccc(NC(=O)CCC(=O)NCCC(C)C)cc12`: the RP-LC retention time is 556 s.

Compound `COCCOCc1nc(C2CCCCN2C(=O)NC(C)C)no1` (centres undefined) registered an RP-LC retention time of 667 s.

Compound `COc1cc(=O)n2c(c1C(=O)Nc1cccc3c1CCCC3)CCCC2` returned an RP-LC retention time of 762 s.
